Values of other authors, collected in patent EP3074407B1, “COMPOUND AND METHOD FOR SELECTIVE RADIOLABELLING OF POLYPEPTIDES BY MEANS OF SOLID-PHASE SYNTHESIS” (Freie Universität Berlin, priority 2013, dated 2015).

Experiments:
[1] = PET, Menschen, Primaten und Nagetieren; cited from earlier work
[2] = literature (Breeman et al. 1996); cited from earlier work

Row | Compound | Aufnahme im Gehirn [1] | Durchlässigkeit der Blut-Hirn-Schranke [2]
1 | FC(F)(F)c1nnnn1-c1ccc(OC[18F])c(CN[C@H]2CCCN[C@H]2c2ccccc2)c1 [18F-SPA-RQ] | hohe Aufnahme | 
2 | [indium111-DTPA-Argl]substance P [In^111 markierten Substanz P-Agonisten] |  | undurchlässig
